In US10870647B2, “Imidazopyridine derivative, method for preparing same, and pharmaceutical composition containing same as active ingredient for preventing or treating cancer” (DAEGU-GYEONGBUK MEDICAL INNOVATION FOUNDATION, priority 2016, dated 2020) one finds remaining binding data, which are given here for three molecules.

What all share (experiment): Kinase selectivity, scanMAX Kinase assay panel (DiscoverX), % control at 1 uM
Format in all cases: binding

Assay [1] addresses T1, scanMAX Kinase assay panel (Homo sapiens, UniProt P10721, V559D).
T1 construct: purchased DiscoverX
The note with it: KIT (V559D); 1 uM; read-out: Percent Control (%). A digest of the protocol: (§1)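 Compounds were tested at 1 uM in DMSO against each enzyme in the panel. Percent control was calculated as (compound − positive control)/(negative control − positive control) × 100, and a compound was scored active on a kinase when this value fell below 35.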

The target of assay [2] is T2, scanMAX Kinase assay panel (Homo sapiens, UniProt P36888, R834Q).
T2 construct: purchased DiscoverX
T2 sequence (P36888 27-993 R834Q): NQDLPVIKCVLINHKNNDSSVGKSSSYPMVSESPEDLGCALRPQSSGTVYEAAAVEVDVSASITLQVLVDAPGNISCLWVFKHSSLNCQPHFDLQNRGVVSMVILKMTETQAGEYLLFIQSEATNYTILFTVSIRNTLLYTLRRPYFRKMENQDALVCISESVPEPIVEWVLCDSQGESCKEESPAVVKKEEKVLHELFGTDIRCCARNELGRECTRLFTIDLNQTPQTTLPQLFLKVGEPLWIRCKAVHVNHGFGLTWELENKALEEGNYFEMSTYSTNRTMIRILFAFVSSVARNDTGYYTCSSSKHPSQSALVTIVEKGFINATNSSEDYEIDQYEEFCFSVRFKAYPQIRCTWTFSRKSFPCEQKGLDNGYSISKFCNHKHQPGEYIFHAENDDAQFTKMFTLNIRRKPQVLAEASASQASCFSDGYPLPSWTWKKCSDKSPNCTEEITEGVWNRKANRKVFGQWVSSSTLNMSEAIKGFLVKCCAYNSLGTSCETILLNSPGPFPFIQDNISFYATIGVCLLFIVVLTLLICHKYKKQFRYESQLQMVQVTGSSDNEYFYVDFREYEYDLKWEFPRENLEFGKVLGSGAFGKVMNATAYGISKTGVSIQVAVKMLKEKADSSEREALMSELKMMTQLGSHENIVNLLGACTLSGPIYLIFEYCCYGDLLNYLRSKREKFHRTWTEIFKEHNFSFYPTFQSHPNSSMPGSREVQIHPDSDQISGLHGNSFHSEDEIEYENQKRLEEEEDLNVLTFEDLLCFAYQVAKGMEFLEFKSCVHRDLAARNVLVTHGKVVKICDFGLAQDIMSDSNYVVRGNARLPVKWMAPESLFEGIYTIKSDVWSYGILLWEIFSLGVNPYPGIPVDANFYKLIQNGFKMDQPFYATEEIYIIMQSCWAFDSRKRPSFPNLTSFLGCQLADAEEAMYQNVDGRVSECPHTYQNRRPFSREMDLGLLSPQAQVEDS
The note with it: FLT3 (R834Q); 1 uM; read-out: Percent Control (%). In a few lines: as §1

Assay [3] deals with T3, scanMAX Kinase assay panel (Homo sapiens, UniProt P00519, M351T).
T3 construct: purchased DiscoverX
The conditions noted are these: ABL1 (M351T)-phosphorylated; 1 uM; read-out: Percent Control (%). In a few lines: as §1

Assay [4] addresses T4, scanMAX Kinase assay panel (Homo sapiens, UniProt P42336, H1047Y).
T4 construct: purchased DiscoverX
The conditions noted are these: PIK3CA (H1047Y); 1 uM; read-out: Percent Control (%). A digest of the protocol: as §1

Assay [5] addresses T5, scanMAX Kinase assay panel (Homo sapiens, UniProt P43405).
T5 construct: purchased DiscoverX
The conditions noted are these: SYK; 1 uM; read-out: Percent Control (%). A digest of the protocol: as §1

The target of assay [6] is T6, scanMAX Kinase assay panel (Homo sapiens, UniProt Q8IWQ3).
T6 construct: purchased DiscoverX
T6 sequence (Q8IWQ3 1-736): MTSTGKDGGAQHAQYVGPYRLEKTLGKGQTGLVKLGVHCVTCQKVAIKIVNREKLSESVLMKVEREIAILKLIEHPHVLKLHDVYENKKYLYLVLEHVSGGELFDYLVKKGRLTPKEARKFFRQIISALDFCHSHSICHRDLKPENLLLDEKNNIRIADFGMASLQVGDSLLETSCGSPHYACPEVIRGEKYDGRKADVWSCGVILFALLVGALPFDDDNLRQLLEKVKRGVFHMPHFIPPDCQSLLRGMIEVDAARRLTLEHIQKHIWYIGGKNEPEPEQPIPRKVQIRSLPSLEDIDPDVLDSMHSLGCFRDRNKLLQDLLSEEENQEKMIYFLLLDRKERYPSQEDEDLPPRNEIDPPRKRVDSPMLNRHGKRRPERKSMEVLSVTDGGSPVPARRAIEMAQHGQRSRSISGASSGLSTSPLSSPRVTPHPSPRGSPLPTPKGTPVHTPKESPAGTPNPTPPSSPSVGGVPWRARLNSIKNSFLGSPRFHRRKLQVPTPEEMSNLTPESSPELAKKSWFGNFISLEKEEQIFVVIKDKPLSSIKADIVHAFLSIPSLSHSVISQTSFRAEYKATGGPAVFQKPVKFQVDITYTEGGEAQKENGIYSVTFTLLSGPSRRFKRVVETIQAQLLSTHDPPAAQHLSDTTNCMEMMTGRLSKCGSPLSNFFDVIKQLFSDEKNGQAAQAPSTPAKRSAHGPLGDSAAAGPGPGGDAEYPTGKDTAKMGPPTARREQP
The conditions noted are these: BRSK2; 1 uM; read-out: Percent Control (%). In a few lines: as §1

Assay [7] deals with T7, scanMAX Kinase assay panel (Homo sapiens, UniProt Q9BWU1).
T7 construct: purchased DiscoverX
The note with it: CDK11; 1 uM; read-out: Percent Control (%). A digest of the protocol: as §1

Assay [8] has as its target T8, scanMAX Kinase assay panel (Homo sapiens, UniProt O15075).
T8 construct: purchased DiscoverX
The conditions noted are these: DCAMKL1; 1 uM; read-out: Percent Control (%). A digest of the protocol:
as §1

T1 sequence (P10721 26-976 V559D): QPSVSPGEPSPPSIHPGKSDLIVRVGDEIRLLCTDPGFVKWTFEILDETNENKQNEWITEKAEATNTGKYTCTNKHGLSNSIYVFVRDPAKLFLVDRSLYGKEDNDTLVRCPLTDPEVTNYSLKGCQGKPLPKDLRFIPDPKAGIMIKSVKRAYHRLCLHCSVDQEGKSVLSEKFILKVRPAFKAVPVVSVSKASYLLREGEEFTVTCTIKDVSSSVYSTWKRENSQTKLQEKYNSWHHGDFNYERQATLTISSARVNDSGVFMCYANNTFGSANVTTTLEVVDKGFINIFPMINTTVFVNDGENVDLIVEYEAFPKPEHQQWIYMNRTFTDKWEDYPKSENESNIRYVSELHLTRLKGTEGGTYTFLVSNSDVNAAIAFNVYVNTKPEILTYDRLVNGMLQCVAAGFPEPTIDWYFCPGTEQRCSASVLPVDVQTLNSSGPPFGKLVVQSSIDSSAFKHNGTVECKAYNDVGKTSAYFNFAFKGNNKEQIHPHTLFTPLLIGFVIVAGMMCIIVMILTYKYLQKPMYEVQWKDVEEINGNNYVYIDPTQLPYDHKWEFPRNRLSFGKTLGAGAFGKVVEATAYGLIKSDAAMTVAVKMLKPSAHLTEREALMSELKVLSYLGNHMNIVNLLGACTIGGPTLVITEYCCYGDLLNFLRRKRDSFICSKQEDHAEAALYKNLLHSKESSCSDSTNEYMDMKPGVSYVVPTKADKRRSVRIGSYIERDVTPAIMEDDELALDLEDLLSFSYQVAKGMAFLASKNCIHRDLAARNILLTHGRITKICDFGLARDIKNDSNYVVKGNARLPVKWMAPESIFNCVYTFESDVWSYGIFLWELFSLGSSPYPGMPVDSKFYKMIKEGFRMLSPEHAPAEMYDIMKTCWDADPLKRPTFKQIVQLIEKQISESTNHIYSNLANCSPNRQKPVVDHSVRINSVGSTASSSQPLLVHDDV
T7 sequence (Q9BWU1 whole entry): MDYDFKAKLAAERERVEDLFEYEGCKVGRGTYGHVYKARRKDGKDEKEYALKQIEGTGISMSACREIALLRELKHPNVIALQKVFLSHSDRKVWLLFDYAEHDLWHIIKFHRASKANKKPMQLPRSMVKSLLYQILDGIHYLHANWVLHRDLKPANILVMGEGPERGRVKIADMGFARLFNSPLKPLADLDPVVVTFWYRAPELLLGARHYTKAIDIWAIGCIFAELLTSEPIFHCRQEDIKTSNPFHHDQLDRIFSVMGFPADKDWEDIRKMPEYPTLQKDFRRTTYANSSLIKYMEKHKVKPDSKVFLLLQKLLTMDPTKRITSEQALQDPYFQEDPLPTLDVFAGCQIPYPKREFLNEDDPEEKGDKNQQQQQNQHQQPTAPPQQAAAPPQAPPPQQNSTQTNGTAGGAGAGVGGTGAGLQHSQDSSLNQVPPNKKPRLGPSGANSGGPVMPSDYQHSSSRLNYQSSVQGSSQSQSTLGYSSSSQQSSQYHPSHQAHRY
T4 sequence (P42336 whole entry H1047Y): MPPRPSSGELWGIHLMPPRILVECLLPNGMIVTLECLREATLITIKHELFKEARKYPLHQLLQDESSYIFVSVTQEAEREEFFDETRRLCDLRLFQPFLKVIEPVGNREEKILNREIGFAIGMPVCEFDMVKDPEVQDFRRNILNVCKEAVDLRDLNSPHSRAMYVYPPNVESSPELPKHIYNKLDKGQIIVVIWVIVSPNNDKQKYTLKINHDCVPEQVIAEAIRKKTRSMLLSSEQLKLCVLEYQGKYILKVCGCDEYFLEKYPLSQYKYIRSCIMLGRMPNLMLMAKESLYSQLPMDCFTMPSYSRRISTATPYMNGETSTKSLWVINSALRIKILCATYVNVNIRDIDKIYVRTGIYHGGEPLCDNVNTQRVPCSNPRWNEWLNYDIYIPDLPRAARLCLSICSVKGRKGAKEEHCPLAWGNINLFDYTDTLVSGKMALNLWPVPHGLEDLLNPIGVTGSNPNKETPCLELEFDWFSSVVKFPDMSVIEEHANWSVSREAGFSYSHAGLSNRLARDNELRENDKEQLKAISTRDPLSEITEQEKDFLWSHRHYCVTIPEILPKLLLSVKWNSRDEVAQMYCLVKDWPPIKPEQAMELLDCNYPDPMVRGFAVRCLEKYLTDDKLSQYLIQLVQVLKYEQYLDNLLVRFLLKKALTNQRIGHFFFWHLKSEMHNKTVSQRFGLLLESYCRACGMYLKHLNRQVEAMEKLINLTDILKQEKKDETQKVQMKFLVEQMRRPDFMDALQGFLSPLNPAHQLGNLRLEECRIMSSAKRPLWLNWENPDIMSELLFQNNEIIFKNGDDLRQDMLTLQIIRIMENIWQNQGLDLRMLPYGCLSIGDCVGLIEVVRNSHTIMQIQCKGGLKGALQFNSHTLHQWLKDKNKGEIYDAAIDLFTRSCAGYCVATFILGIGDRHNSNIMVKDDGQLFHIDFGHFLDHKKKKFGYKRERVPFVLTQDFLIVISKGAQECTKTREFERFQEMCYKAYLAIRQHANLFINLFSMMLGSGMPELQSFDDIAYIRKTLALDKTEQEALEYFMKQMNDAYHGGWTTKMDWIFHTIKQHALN
T8 sequence (O15075 whole entry): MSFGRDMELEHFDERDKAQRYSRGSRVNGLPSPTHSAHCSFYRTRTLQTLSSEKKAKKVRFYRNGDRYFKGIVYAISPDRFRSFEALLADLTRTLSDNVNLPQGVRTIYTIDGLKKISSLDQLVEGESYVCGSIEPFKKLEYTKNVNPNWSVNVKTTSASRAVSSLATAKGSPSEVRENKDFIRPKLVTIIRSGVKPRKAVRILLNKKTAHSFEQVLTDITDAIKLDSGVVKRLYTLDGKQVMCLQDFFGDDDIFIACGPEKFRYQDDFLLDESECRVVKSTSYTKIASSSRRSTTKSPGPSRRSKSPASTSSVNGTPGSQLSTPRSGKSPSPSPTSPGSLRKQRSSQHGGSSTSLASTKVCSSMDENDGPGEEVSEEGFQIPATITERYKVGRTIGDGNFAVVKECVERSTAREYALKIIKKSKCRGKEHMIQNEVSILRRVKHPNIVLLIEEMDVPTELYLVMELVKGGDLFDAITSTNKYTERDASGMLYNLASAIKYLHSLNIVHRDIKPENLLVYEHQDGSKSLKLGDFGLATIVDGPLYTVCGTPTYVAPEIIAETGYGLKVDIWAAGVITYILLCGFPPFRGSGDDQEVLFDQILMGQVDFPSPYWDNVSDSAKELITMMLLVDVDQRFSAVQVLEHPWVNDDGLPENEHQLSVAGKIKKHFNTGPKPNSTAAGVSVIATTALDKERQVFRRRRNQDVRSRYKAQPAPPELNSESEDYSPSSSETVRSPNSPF

Turning to `Cc1ccc(C(=O)Nc2ccc(CN3CCN(C)CC3)c(C(F)(F)F)c2)cc1C#Cc1cnc2c(Nc3cnn(C)c3)cccn12` [Example 1, 4-methyl-3-((8-((1-methyl-1H-pyrazol-4-yl)amino)imidazo[1,2-a]pyridin-3-yl)ethynyl)-N-(4-((4-methylpiperazin-1-yl)methyl)-3-(trifluoromethyl)phenyl)benzamide], the remaining binding at 1 µM in assay [1] stood at 0%; in assay [2], 3%; in assay [3] it was 1%; in assay [4], 74%; in assay [5] it was 2%; in assay [6], 96%. The remaining binding at 1 µM was 0% in assay [7] and 54% in assay [8].

On to `Cc1ccc(NC(=O)C2(C(=O)Nc3ccc(F)cc3)CC2)cc1C#Cc1cnc2c(Nc3cnn(C(C)C)c3)cccn12` [Example 78], for which the remaining binding at 1 µM in assay [1] came out at 0%; in assay [2] it was 100%; in assay [3] it was 59%; in assay [4], 100%; in assay [5], 78%; in assay [6] it was 100%. In addition, the remaining binding at 1 µM in assay [7] amounted to 100%; in assay [8] it was 95%.

With `Cc1cn(-c2cc(NC(=O)c3ccc(C)c(C#Cc4cnc5c(Nc6cnn(C)c6)cccn45)c3)cc(C(F)(F)F)c2)cn1` [Example 12, 4-methyl-N-(3-(4-methyl-1H-imidazol-1-yl)-5-(trifluoromethyl)phenyl)-3-((8-((1-methyl-1H-pyrazol-4-yl)amino)imidazo[1,2-a]pyridin-3-yl)ethynyl)benzamide], the remaining binding at 1 µM in assay [1] is 1%; in assay [2], 62%; in assay [3] it was 11%; in assay [4], 84%; in assay [5], 12%; in assay [6], 87%. The results for the remaining binding at 1 µM in assay [7] and in assay [8] were 19% and 91%, respectively.
